{
  "source": "ChEMBL document CHEMBL4706529",
  "about": "“Design, synthesis and in vitro cell-free/cell-based biological evaluations of novel ERCC1-XPF inhibitors targeting DNA repair pathway” (Eur J Med Chem, 2020)",
  "key": {"[1]": {"biological_target": "T1, DNA excision repair protein ERCC-1/DNA repair endonuclease XPF (Homo sapiens) (UniProt P07992+Q92889)", "experiment": "Inhibition of human His-tagged ERCC1-XPF expressed in Escherichia coli BL21 (DE3) cells using 6-FAM-5'CAGCGCTCGG(20T)CCGAGCGCTG-3'-dabcyl at 10 uM measured for 12 mins by fluorescence incision assay"}, "[2]": {"experiment": "Binding affinity to 6-FAM-5'CAGCGCTCGG(20T)CCGAGCGCTG-3'-dabcyl (unknown origin) measured for 12 mins by fluorescence incision assay"}, "[3]": {"system": "HCT-116", "experiment": "Antiproliferative activity against human HCT-116 cells assessed as sensitizing capacity by measuring reduction in cell survival at 4 uM in presence of cyclophosphamide by clonogenic survival assay", "format": "functional, cell-based"}, "[4]": {"biological_target": "T1, DNA excision repair protein ERCC-1/DNA repair endonuclease XPF (Homo sapiens)", "experiment": "Binding affinity to His-tagged human ERCC1-XPF expressed in Escherichia coli BL21 (DE3) cells at 4 uM by steady-state fluorescence assay relative to control"}, "[5]": {"system": "HCT-116", "experiment": "Cytotoxicity against human HCT-116 cells assessed as reduction in cell viability at 5 to 20 uM after 3 days", "format": "cell-based", "settings": "hct-116, 72 h, dose 5-20 µM, time 3 day"}, "[6]": {"system": "HCT-116", "experiment": "Cytotoxicity against human HCT-116 cells assessed as reduction in cell viability at 2 uM after 3 days relative to control", "format": "cell-based", "settings": "hct-116, 72 h, time 3 day"}, "[7]": {"system": "HCT-116", "experiment": "Antiproliferative activity against human UV-radiated HCT-116 cells assessed as sensitizing capacity by measuring reduction in cell survival at 2 to 4 uM by clonogenic survival assay", "format": "functional, cell-based", "settings": "dose 2-4 µM"}, "[8]": {"biological_target": "T1, DNA excision repair protein ERCC-1/DNA repair endonuclease XPF (Homo sapiens)", "experiment": "Inhibition of ERCC1-XPF in UV-radiated human HCT-116 cells assessed as cyclobutane pyrimidine dimer DNA repair at 2 uM preincubated for 1 hr followed by 8 J/m2 UV-C radiation and measured up to 24 hrs by IgG-Alexafluor antibody based fluorescent microscopic analysis (reference value: 16%)", "format": "cell-based", "design": "scale not given: the % may be the effect or the level left", "settings": "time hrs <=25"}, "[9]": {"biological_target": "T2, DNA excision repair protein ERCC-1/DNA repair endonuclease XPF (Homo sapiens, UniProt P07992+Q92889)", "T2 sequence (P07992 whole entry)": "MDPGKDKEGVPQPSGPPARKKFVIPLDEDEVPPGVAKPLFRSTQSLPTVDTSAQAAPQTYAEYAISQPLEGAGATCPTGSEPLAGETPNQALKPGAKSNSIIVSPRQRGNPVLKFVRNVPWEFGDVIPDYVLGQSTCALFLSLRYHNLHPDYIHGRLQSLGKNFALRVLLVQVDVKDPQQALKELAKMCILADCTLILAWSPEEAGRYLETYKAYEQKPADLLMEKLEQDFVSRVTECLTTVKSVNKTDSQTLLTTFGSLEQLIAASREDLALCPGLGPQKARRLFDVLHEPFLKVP", "T2 sequence (Q92889 whole entry)": "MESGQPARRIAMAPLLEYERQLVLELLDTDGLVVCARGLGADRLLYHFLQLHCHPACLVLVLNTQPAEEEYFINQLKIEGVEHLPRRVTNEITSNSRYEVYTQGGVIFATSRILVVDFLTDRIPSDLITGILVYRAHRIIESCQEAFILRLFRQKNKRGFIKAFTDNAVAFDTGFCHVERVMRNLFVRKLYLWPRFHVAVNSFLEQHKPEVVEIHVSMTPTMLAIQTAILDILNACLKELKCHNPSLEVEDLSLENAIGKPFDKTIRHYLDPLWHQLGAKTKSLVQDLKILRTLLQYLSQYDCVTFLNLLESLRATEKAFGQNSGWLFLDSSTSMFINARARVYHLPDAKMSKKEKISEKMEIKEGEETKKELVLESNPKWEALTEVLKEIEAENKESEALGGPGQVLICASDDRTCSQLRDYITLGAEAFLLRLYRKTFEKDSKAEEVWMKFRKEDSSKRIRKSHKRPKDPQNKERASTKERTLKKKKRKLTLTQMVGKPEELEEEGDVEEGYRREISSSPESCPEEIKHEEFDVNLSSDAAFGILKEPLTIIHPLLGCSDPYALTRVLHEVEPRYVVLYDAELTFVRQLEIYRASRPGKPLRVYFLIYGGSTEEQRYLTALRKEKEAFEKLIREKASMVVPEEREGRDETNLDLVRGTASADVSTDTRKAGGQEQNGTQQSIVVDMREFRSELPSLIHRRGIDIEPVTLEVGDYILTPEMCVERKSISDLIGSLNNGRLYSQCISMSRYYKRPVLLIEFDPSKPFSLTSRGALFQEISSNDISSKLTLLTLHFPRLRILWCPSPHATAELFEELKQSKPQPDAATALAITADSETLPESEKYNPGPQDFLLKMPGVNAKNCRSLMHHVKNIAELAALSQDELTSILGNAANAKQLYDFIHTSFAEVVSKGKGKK", "experiment": "Binding affinity to His-tagged human ERCC1-XPF expressed in Escherichia coli BL21 (DE3) cells by steady-state fluorescence assay"}, "[10]": {"biological_target": "T2, DNA excision repair protein ERCC-1/DNA repair endonuclease XPF", "experiment": "Inhibition of human His-tagged human ERCC1-XPF expressed in Escherichia coli BL21 (DE3) cells using 6-FAM-5'CAGCGCTCGG(20T)CCGAGCGCTG-3'-dabcyl measured for 12 mins by fluorescence incision assay"}, "[11]": {"system": "HCT-116", "experiment": "Antiproliferative activity against human HCT-116 cells assessed as sensitizing capacity by measuring reduction in cell survival at 2 uM in presence of cyclophosphamide by clonogenic survival assay", "format": "functional, cell-based"}, "[12]": {"system": "HCT-116", "experiment": "Antiproliferative activity against human UV-radiated HCT-116 cells assessed as sensitizing capacity by measuring reduction in cell survival at 2 uM by clonogenic survival assay", "format": "functional, cell-based"}, "[13]": {"system": "HCT-116", "experiment": "Cytotoxicity against human HCT-116 cells assessed as reduction in cell viability at >= 5 uM after 3 days", "format": "cell-based", "settings": "hct-116, 72 h, time 3 day"}, "[14]": {"experiment": "Cytotoxicity against human HCT-116 cells assessed as cell viability at 5 uM after 3 days relative to control", "format": "cell-based", "settings": "time 3 day, read-out: Activity"}},
  "note": "Activity calls are given as the source filed them. No cut-off for these calls is given here.",
  "data": [
    {"smiles": "COc1ccc2c(Nc3ccc(O)cc3)ccnc2c1", "values": [
      {"measurement": "inhibition", "setting": "[1]", "result": "inactive"}
    ]},
    {"smiles": "COc1ccc2c(Cl)ccnc2c1", "values": [
      {"measurement": "inhibition", "setting": "[1]", "result": "inactive"}
    ]},
    {"smiles": "COc1cc(C#N)c(Nc2c3ccc(Cl)cc3nc3ccc(O)cc23)cc1OC", "values": [
      {"measurement": "inhibition", "setting": "[1]", "result": "Active"}
    ]},
    {"smiles": "CN1CCN(Cc2cc(Nc3c4ccc(Cl)cc4nc4ccc(O)cc34)ccc2O)CC1", "values": [
      {"measurement": "inhibition", "setting": "[1]", "result": "Active"}
    ]},
    {"smiles": "COc1ccc2nc3cc(Cl)ccc3c(Cl)c2c1", "values": [
      {"measurement": "inhibition", "setting": "[1]", "result": "inactive"}
    ]},
    {"smiles": "CN1CCN(Cc2cc(Nc3c4ccc(Cl)cc4nc4ccc(OCc5ccccc5)cc34)ccc2O)CC1", "values": [
      {"measurement": "Kd", "setting": "[2]", "result": 200, "unit": "nM"},
      {"measurement": "Activity", "setting": "[3]", "result": "inactive"},
      {"measurement": "inhibition", "setting": "[1]", "result": "Active"},
      {"measurement": "Activity", "setting": "[4]", "result": "< 2", "unit": "%"},
      {"measurement": "Activity", "setting": "[5]", "result": "Non-Toxic"}
    ]},
    {"smiles": "CN1CCN(Cc2cc(N)ccc2O)CC1", "values": [
      {"measurement": "inhibition", "setting": "[1]", "result": "inactive"}
    ]},
    {"smiles": "Oc1ccc2nc3cc(Cl)ccc3c(Cl)c2c1", "values": [
      {"measurement": "inhibition", "setting": "[1]", "result": "Active"}
    ]},
    {"smiles": "CN(C)CCN1CCN(Cc2cc(Nc3c4ccc(Cl)cc4nc4ccc(O)cc34)ccc2O)CC1", "values": [
      {"measurement": "Activity", "setting": "[6]", "result": 95, "unit": "%"},
      {"measurement": "Kd", "setting": "[2]", "result": 1050, "unit": "nM"},
      {"measurement": "Activity", "setting": "[7]", "result": "Active"},
      {"measurement": "inhibition", "setting": "[1]", "result": "Active"},
      {"measurement": "Activity", "setting": "[4]", "result": 25, "unit": "%"},
      {"measurement": "Activity", "setting": "[8]", "result": 35, "unit": "%"},
      {"measurement": "Kd", "setting": "[9]", "result": 85, "unit": "nM"},
      {"measurement": "IC50", "setting": "[10]", "result": 490, "unit": "nM"},
      {"measurement": "Activity", "setting": "[11]", "result": "Active"}
    ]},
    {"smiles": "COc1ccc2c(Nc3ccc(O)c(CN4CCN(CCN(C)C)CC4)c3)ccnc2c1", "values": [
      {"measurement": "inhibition", "setting": "[1]", "result": "Active"}
    ]},
    {"smiles": "COc1ccc2c(Nc3ccc(O)c(CN(C)C)c3)ccnc2c1", "values": [
      {"measurement": "inhibition", "setting": "[1]", "result": "Active"}
    ]},
    {"smiles": "COc1ccc2nc3cc(Cl)ccc3c(Nc3ccc(O)c(CN4CCN(C)CC4)c3)c2c1", "values": [
      {"measurement": "Activity", "setting": "[12]", "result": "Active"},
      {"measurement": "inhibition", "setting": "[1]", "result": "Active"},
      {"measurement": "Activity", "setting": "[13]", "result": "Toxic"},
      {"measurement": "viability at 72 h, 5 µM", "setting": "[14]", "result": 35, "unit": "%"},
      {"measurement": "Kd", "setting": "[9]", "result": 140, "unit": "nM"}
    ]}
  ]
}
